Where “and” joins values, the source holds several entries; their conditions need not be identical. Identical values can stand only once.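 Five compound concentrations were applied to cells in 96-well plates for 48 hours; endpoints were derived by simple linear interpolation of the resulting dose-response curve. Abbreviation: GI50, concentration required for 50% inhibition of growth. TGI: concentration producing complete growth inhibition.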 Some results are limits rather than exact numbers.

Assay in all cases: growth of human tumour cells (NCI), 48 h
Experiment [1] has as its system ACHN renal.
Experiment [2] relates to HOP-62 NSCLC.
Experiment [3] relates to KM12 colon.
For experiment [4], the system named is NCI-H226 lung.
The subject of experiment [5] is OVCAR-3 ovarian.
In experiment [6] the test system is SW-620 colon.
The test system of experiment [7] is TK-10 renal.
Experiment [8] has as its system DU-145 prostate.
Experiment [9] has as its system NCI/ADR-RES ovarian.
The subject of experiment [10] is T-47D breast.

Consider `CN(C(=O)C12C3C4C1C1C2C3C41C#N)C(C)(C)C` (centres undefined), for which the TGI in experiment [1], in experiment [2], in [3], in [4], in [5] and in experiment [6] was > 100 µM each time. The TGI in [7] was > 100 µM.

As for `C(=C\c1ccc2ccccc2c1Nc1ccccc1)/c1ccccc1`, the TGI in [1] is > 63.9 µM; in experiment [2] it was 62.5 µM; in [3], > 100 µM; in experiment [4], > 100 µM; in experiment [5] it was 60.4 µM; in experiment [6] it was > 100 µM. For the same compound, in [7], the TGI is > 100 µM.

`CN(C)NC(=O)NC12CC3CC(CC(C3)C1)C2`: the TGI in [1] is > 100 µM; in experiment [3], > 100 µM; in experiment [4] it was > 100 µM; in experiment [6], > 100 µM; in experiment [7] it was > 10 µM.

With `Nc1ncc(CN2CCCC2)c(-c2ccccc2O)n1`, the TGI in experiment [1], in experiment [2], in experiment [3], in [4], in experiment [5] and in experiment [6] was > 750 µM each time. The TGI in experiment [7] is > 750 µM.

As to `CCCCCCCCCC(=O)Oc1ccc(/C(=C(/C)c2ccccc2)c2ccc(OCCN3CCCC3)cc2)cc1`, the GI50 was 8.16 µM in [1]; 8 µM in experiment [8]; 8.75 µM in [2]; 8.78 µM in [3]; 9.42 µM in experiment [4]; 8.03 µM in experiment [9]. Further, the results for the GI50 in experiment [5], in [6] and in experiment [7] were 8.18 µM, 8.57 µM and 8.86 µM, respectively. Further, the TGI came to 15.5 µM in experiment [1]; 14.8 µM in experiment [8]; 17.3 µM in [2]; 16.7 µM in experiment [3]; 18.5 µM in experiment [4]; 16.9 µM in experiment [9]. The TGI was 16.1 µM in [5], 15.6 µM in experiment [6] and 16.7 µM in experiment [7].

Take `O=C1c2c(c3c4ccccc4n(CC4CO4)c3c3[nH]c4ccccc4c23)C(=O)N1Cc1ccccc1` (centres undefined): the TGI in experiment [2], in [3], in [4], in [5], in experiment [6] and in experiment [7] was > 100 µM in each case.

For `O=C1N(c2ccc(Cl)cc2)C(=O)C2(SC=NN2Cc2ccccc2)N1c1ccc(Cl)cc1` (centres undefined), the TGI in experiment [1], in [2], in experiment [3], in experiment [4], in experiment [5] and in experiment [6] was > 100 µM throughout. Moreover, the TGI in experiment [7] is > 100 µM.

Take `COc1ccc([C@@H]2[C@@H](Cl)C(=O)N2c2cc(OC)c(OC)c(OC)c2)cc1C`: the GI50 was 0.121 µM in experiment [1]; 0.0405 µM in experiment [8]; 0.0535 µM in experiment [2]; 0.0419 µM in experiment [3]; 13.2 µM in experiment [4]; 0.0426 µM in experiment [9]. Moreover, the GI50 in experiment [5] is 0.0241 µM; in [6] it was 0.0462 µM; in experiment [7], 10.5 µM. The TGI was 30.3 µM in [1]; 0.236 µM in experiment [8]; > 100 µM in experiment [2]; 17.1 µM in [3]; 73.9 µM in experiment [4]; > 100 µM in experiment [9]. For the same compound, the TGI stood at 0.0581 µM in experiment [5], 34.5 µM in [6] and 79.9 µM in experiment [7].

On to `COc1cccc(NC(=O)/C(CS(=O)(=O)CCC(C(C)=O)C(C)=O)=N\NC(C)(C)C)c1`, for which the TGI in [1], in experiment [2], in experiment [3], in [4], in experiment [5] and in experiment [6] was > 100 µM in each case. The TGI in [7] is > 100 µM.

In the case of `CCn1c(=O)nc2n(-c3ccc(SC)cc3)c3ccccc3nc-2c1=O`, the TGI in [1], in [2], in experiment [3], in [4], in experiment [5] and in experiment [6] was > 100 µM in each case. Also, in experiment [7], the TGI was > 100 µM.

For `COc1cc([C@@H]2c3cc4c(cc3[C@@H](OC3OC5COC(C)OC5C(O)C3O)[C@H]3COC(=O)[C@H]23)OCO4)cc(OC)c1O` (some centres undefined), the GI50 is 2.3 µM and 1.67 µM in [8]; 0.516 µM in experiment [10]. Further, the TGI was 27.1 µM and 23.9 µM and 92.2 µM in experiment [3]; 178 µM and 500 µM and 650 µM in experiment [9]; 54.6 µM and 159 µM in experiment [6]; 5.18 µM in experiment [10]; > 84.4 µM and 48.8 µM and 32 µM in experiment [7].

With `C=C(C)[C@@H]1CC[C@]2(C(=O)O)CC[C@]3(C)[C@H](CC[C@@H]4[C@@]5(C)CCC(N)C(C)(C)[C@@H]5CC[C@]43C)[C@@H]12` (some centres undefined), the GI50 in experiment [1] is 2.2 µM; in experiment [8], 3.07 µM; in experiment [2], 2.49 µM; in experiment [5] it was 1.9 µM. Besides, the TGI in experiment [1] was 5.32 µM; in experiment [8], > 100 µM; in [2], 7 µM; in experiment [5] it was 3.66 µM.

Turning to `CC(=O)[CH-]C(=O)c1ccccc1.CC(=O)[CH-]C(=O)c1ccccc1.Cl.[O-]CCc1ccccn1.[O-]CCc1ccccn1.[Ti+4]`, the GI50 in experiment [1] is 33.4 µM; in experiment [2], 23.6 µM; in experiment [3], 41.4 µM; in experiment [4], 18.7 µM; in experiment [5], 32.3 µM; in [6], 29.5 µM. In experiment [7], the GI50 is 28.7 µM. The TGI is > 100 µM in experiment [1]; 47.7 µM in experiment [2]; > 100 µM in experiment [3]; 78.3 µM in [4]; > 100 µM in experiment [5]; > 100 µM in experiment [6]. This compound also displayed a TGI in experiment [7] of 93.3 µM.

For the compound `CCOC(=O)C(=O)CC(=O)C(Br)C(Br)c1ccc(Cl)cc1` (centres undefined), the TGI in experiment [1] was > 100 µM; in experiment [2] it was > 100 µM; in [3] it was > 100 µM; in experiment [5], 87.8 µM; in experiment [6] it was > 100 µM; in experiment [7] it was > 100 µM.

(Values after PubChem BioAssay (NCI).)
